Source: PMC10342134, “Isolation and Characterization of Poeciguamerin, a Peptide with Dual Analgesic and Anti-Thrombotic Activity from the Poecilobdella manillensis Leech” (International Journal of Molecular Sciences, 2023)
Bridge positions count the residues as written; N and C are the ends. Ends that are not written are not given here.

How the values were obtained:
[1] = tested on: mice; test: Foot-licking mouse model (elastase-induced pain); format: in vivo, mouse (female C57BL/6J); conditions: poeciguamerin 0, 6, 12 mg/kg i.v. 10 min before 25 μL elastase (6 mg/kg) in right hind paw; phase I 0–10 min and phase II 10–30 min; n = 5 per group
Protocol: (§1) To evaluate the biological activity of poeciguamerin, we used the foot-licking mouse model and the tail-withdrawal mouse model. In the foot-licking mouse model, we placed the mice in a hot plate apparatus at a temperature of 55 ± 0.5 °C. The pain thresholds of the mice were measured twice every 15 min and hind paw licking was used as the observation parameter. Female mice showing a pain response within 10–30 s were selected and randomly divided into four groups. In the control group, 25 μL elastase (6 mg/kg) was injected into the base of the right hind paw, while in the experimental group, poeciguamerin (0, 6, 12 mg/kg) was injected intravenously 10 min before the elastase injection. […] The cumulative number of foot licks during the first phase (0–10 min) (Figure 5A) and the second phase (10–30 min) (Figure 5B) was recorded. […] The tails of the mice were stretched in hot water at 45 °C and the time of tail flicking was recorded.
(§2) Figure 5 Effects of poeciguamerin on elastase or hot water bath-induced pain. […] The total time mice spent licking the paw was recorded during the I phase (0–10 min) (A) and the II phase (10–30 min) (B). n = 5 per group. Data are expressed as mean ± SEM and were subjected to an unpaired t-test, *** p < 0.001. […] The tails of the mice were stretched in hot water at 45 °C and the time of the tail flick was recorded (C). n = 5 per group. […]

[2] = molecular target: T1, elastase (Homo sapiens, UniProt P08246); test: Effect on elastase activity (chromogenic substrate assay; Dixon plot Ki); format: biochemical
T1 construct: purchased Sigma-Aldrich E8140
T1 sequence (P08246 30-267): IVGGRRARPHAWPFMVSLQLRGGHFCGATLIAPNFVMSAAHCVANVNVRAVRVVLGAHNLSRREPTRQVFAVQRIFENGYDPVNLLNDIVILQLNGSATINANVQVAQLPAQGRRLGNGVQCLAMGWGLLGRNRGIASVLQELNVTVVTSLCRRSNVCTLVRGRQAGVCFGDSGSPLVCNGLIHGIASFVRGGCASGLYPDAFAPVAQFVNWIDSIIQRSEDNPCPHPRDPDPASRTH
Source text: (§3) Thus, we examined the effects of poeciguamerin on proteases such as FXIIa, kallikrein, trypsin, thrombin, FXa, and elastase using appropriate chromogenic substrates.
(§4) Figure 3 Effects of poeciguamerin on elastase and coagulation. Effects of natural poeciguamerin on elastase (A), FXIIa (B), kallikrein (C), FXa (D), trypsin (E), and thrombin (F) enzymatic activities.
(§5) We mixed poeciguamerin with specific chromogenic substrates and proteases to evaluate the effect of poeciguamerin on various enzymatic activities. […] The proteases and different concentrations of natural poeciguamerin (0, 0.5, 1, 2, 10, 20, 40 μM) were incubated in a total volume of 60 μL in buffer (50 mM Tris-HCl pH 7.4) for 5 min at room temperature. Subsequently, a buffer containing the appropriate enzyme substrate was added to a total volume of 100 μL. Using an enzyme marker, GEN CHS v1.09 software detected OD405 at 30-s intervals and recorded for 10 min to calculate enzyme kinetics.

[3] = molecular target: T2, FXIIa (Homo sapiens, UniProt P00748); test: Effect on FXIIa activity (chromogenic substrate assay; Dixon plot Ki); format: biochemical; conditions: natural poeciguamerin 0-40 μM; FXIIa 10 nM; S-2302 0.2 mM; 50 mM Tris-HCl pH 7.4; 5 min, room temperature; OD405 for 10 min
T2 construct: purchased Enzyme Research Laboratories 1212a
T2 sequence (P00748 373-615 limits assumed): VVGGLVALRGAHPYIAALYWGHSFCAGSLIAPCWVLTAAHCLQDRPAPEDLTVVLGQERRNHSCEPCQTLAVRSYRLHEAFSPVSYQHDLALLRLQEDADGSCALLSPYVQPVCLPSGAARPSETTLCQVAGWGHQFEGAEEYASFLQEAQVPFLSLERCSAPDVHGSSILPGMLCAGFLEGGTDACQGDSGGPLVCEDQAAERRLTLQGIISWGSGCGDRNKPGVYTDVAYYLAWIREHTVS
T2 sequence (P00748 20-372 partner limits assumed): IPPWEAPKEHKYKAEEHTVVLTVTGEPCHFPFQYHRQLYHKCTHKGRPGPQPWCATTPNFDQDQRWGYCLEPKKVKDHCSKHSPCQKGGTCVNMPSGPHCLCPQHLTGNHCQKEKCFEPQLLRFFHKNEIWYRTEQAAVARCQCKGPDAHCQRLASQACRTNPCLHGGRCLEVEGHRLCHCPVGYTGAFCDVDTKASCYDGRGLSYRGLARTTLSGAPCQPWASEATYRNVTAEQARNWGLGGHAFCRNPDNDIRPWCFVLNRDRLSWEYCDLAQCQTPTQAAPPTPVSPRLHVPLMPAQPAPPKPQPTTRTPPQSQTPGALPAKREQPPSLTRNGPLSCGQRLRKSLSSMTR
Source text: as §3, §4, §5

[4] = tested on: mice; test: Tail withdrawal mouse model (hot water bath); format: in vivo, mouse (female C57BL/6J); conditions: poeciguamerin 0, 6, 12 mg/kg, tail vein; water 45 °C; maximum time 15 s; n = 5 per group
Protocol: as §1, §2

[5] = molecular target: T3, kallikrein (Homo sapiens, UniProt P03952); test: Effect on kallikrein activity (chromogenic substrate assay; Dixon plot Ki); format: biochemical; conditions: natural poeciguamerin 0-40 μM; kallikrein 80 nM; S-2302 0.2 mM; 50 mM Tris-HCl pH 7.4; 5 min, room temperature; OD405 for 10 min
T3 construct: purchased Enzyme Research Laboratories 1303
Source text: as §3, §4, §5

[6] = tested on: FXa; test: Effect on FXa activity (chromogenic substrate assay); format: biochemical; conditions: natural poeciguamerin 0-40 μM; FXa 20 nM; S-2222 0.2 mM; 50 mM Tris-HCl pH 7.4; 5 min, room temperature; OD405 for 10 min
Protocol: as §4
(§6) We mixed poeciguamerin with specific chromogenic substrates and proteases to evaluate the effect of poeciguamerin on various enzymatic activities. These enzymes and substrates included FXIIa (10 nM, 1212a, Enzyme Research Laboratories, South Bend, IN, USA; substrate: 0.2 mM, S-2302, Chromogenix, Milan, Italy), kallikrein (80 nM, 1303, Enzyme Research Laboratories, South Bend, IN, USA; substrate: 0.2 mM, S-2302, Chromogenix, Milan, Italy), trypsin (0.8 μM, T2600000, Sigma-Aldrich, St. Louis, MO, USA; substrate: 0.2 mM, S-2222, Chromogenix, Milan, Italy), thrombin (10 nM, 1002a, Enzyme Research Laboratories, South Bend, IN, USA; substrate: 0.2 mM, S-2238, Chromogenix, Milan, Italy), FXa (20 nM, 1011, Enzyme Research Laboratories, South Bend, IN, USA; substrate: 0.2 mM, S-2222, Chromogenix, Milan, Italy), elastase (0.4 μM, E8140, Sigma-Aldrich, St. Louis, MO, USA; substrate: 0.2 mM, 324696, Sigma-Aldrich, St. Louis, MO, USA), and other proteases were affected. […] Using an enzyme marker, GEN CHS v1.09 software detected OD405 at 30-s intervals and recorded for 10 min to calculate enzyme kinetics.

[7] = tested on: thrombin; test: Effect on thrombin activity (chromogenic substrate assay); format: biochemical; conditions: natural poeciguamerin 0-40 μM; thrombin 10 nM; S-2238 0.2 mM; 50 mM Tris-HCl pH 7.4; 5 min, room temperature; OD405 for 10 min
Protocol: as §4, §6

[8] = tested on: trypsin; test: Effect on trypsin activity (chromogenic substrate assay); format: biochemical; conditions: natural poeciguamerin 0-40 μM; trypsin 0.8 μM; S-2222 0.2 mM; 50 mM Tris-HCl pH 7.4; 5 min, room temperature; OD405 for 10 min
Protocol: as §4, §6

T3 sequence (P03952 391-638 limits assumed): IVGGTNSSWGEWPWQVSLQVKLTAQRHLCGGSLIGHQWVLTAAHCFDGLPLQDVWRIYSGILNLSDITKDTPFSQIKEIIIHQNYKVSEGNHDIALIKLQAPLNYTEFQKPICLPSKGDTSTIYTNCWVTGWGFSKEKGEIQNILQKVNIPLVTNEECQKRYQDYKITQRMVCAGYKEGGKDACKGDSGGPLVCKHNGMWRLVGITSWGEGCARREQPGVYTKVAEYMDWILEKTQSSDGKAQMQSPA
T3 sequence (P03952 20-390 partner limits assumed): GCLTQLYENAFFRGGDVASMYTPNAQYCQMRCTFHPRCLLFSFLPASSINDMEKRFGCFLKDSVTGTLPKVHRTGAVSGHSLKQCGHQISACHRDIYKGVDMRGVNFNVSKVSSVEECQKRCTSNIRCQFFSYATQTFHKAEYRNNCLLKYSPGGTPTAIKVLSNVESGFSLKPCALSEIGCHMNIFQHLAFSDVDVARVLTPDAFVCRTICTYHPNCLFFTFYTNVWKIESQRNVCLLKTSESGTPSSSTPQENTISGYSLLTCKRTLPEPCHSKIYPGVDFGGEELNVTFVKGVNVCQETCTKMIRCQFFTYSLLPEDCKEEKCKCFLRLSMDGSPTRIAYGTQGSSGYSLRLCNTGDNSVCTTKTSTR

VDEKAEVTDDLCGDKTCSGAQVCQNDACVCSPVRCMIMCPNGFKLDENGCEYPCSCA (disulfide 12-23, 17-28, 30-50, 35-54, 39-56) [poeciguamerin]
effect on elastase-induced pain (cumulative foot licks) [1]: attenuated this painful response | effect on elastase activity ([2]; natural poeciguamerin 0-40 μM, elastase 0.4 μM, substrate 324696 0.2 mM, 50 mM Tris-HCl pH 7.4, 5 min, room temperature, OD405 for 10 min): dose-dependent inhibition | inhibition of elastase activity by chromatographic peak fractions ([2]; peak fractions of P. manillensis salivary gland secretions (Sephadex G-50, RP-HPLC C8, Mono S FPLC), elastase chromogenic substrate assay): significantly inhibited elastase activity | effect on FXIIa activity [3]: slight inhibition | effect on hot water-induced pain response (tail withdrawal latency) [4]: attenuated this pain response | effect on kallikrein activity [5]: slight inhibition | effect on FXa activity [6]: no inhibitory effects | effect on thrombin activity [7]: no inhibitory effects | effect on trypsin activity [8]: no inhibitory effects
